In assay [1] the target is T1, ΔF508-CFTR (Homo sapiens, UniProt P13569, DEL508-508).
T1 construct: host or cells: CFBE41o-, doxycycline-inducible
In words: CFTR cell surface levels using HRP-tagged ΔF508-CFTR expressing CFBE cells, intrinsic corrector capacity. It counts as cell-based. Conditions: for EC50: read-out: EC50. An outline of the steps:
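Here the cells express ΔF508-CFTR with horseradish peroxidase inserted in extracellular loop 4, so only rescued channel at the surface gives luminescent signal. Compounds act on their own, 20 h at the reduced temperature of 33 °C; values are percent activity relative to DMSO and a 3 μM corrector.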

Assay [2] addresses T1, ΔF508-CFTR. Description: CFTR cell surface levels using HRP-tagged ΔF508-CFTR expressing CFBE cells, in the presence of a co-corrector. It counts as cell-based. Conditions: HRP-tagged ΔF508-CFTR expressing CFBE cells, in the presence of 3 μM co-corrector; for EC50: read-out: EC50. An outline of the steps:
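Cells were seeded with 0.5 μg/mL doxycycline and held 68 h at 37 °C. Test compounds plus 3 μM co-corrector (final 0.1% DMSO) were then added for 20 h at 33 °C. Washed cells received HRP substrate, and luminescence was normalized between DMSO and 3 μM co-corrector controls.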

The mark [3] stands for this setting: HRP-tagged ΔF508-CFTR expressing CFBE cells, intrinsic corrector capacity (no co-corrector), 33° C., 20 hours.
The mark [4] stands for this setting: HRP-tagged ΔF508-CFTR CFBE41o- cells, compounds alone (intrinsic corrector capacity), 20 hours at 33° C., positive control 3 μM corrector.
Where [5] appears, read: HRP-tagged ΔF508-CFTR CFBE41o- cells, compounds alone (intrinsic corrector capacity), 20 hours at 33° C.

The structures appear in SMILES notation.

These results are taken from US9796711B2, “Substituted pyrazolo[3,4-b]pyridin-6-carboxylic acids and method of use” (AbbVie S.àr.l., priority 2015, dated 2017).

T1 sequence (P13569 with tags, fused parts or gaps DEL508-508): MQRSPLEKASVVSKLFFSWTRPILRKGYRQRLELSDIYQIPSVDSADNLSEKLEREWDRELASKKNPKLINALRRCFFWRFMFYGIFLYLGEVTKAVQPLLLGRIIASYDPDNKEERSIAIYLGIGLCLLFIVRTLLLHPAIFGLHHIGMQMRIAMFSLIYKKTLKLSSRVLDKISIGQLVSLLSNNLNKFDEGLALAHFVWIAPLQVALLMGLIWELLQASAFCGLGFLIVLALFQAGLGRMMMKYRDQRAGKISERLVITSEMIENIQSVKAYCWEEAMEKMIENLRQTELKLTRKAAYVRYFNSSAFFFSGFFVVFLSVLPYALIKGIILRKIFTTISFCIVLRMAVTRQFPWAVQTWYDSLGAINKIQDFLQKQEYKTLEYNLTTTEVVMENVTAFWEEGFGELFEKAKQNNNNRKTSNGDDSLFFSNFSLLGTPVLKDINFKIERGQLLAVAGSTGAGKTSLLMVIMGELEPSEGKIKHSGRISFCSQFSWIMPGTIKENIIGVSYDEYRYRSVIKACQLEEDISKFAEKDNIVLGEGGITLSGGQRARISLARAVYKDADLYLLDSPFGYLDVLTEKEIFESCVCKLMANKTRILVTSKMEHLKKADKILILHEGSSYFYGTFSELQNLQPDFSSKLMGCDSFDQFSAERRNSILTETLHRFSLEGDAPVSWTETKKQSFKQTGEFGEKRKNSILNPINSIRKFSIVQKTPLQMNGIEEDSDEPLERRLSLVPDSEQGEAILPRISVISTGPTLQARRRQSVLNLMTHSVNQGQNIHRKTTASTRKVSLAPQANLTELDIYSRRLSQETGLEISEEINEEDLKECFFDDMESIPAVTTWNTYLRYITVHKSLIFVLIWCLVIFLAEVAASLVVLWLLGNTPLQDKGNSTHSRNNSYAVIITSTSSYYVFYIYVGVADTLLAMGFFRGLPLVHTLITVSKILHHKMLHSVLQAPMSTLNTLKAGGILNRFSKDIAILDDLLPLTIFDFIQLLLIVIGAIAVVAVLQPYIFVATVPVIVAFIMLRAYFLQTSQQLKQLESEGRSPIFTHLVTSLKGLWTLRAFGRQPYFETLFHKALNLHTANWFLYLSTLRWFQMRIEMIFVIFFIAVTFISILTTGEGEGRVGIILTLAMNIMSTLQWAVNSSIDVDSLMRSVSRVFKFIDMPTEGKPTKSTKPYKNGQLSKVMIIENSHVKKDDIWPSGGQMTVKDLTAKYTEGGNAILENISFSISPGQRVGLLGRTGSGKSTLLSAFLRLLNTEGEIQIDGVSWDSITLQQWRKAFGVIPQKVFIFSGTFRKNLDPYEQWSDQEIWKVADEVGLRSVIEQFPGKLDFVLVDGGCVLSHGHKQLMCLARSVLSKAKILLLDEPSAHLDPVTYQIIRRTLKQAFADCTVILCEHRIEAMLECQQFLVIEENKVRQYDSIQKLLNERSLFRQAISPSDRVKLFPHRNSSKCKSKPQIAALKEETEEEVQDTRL

In the case of `Cc1cc(-n2nc(C3CCC3)c3c(N4CCC(N5CCOCC5)CC4)cc(C(=O)O)nc32)ccc1F` [compound 824, 3-cyclobutyl-1-(4-fluoro-3-methylphenyl)-4-[4-(morpholin-4-yl)piperidin-1-yl]-1H-pyrazolo[3,4-b]pyridine-6-carboxylic acid], at ΔF508-CFTR [1] (setting [3]), the “% Activation” value was 338.9% and the EC50 came to 180 nM. Further, at ΔF508-CFTR [2], the “% Activation” value is 535.65% and the EC50 was found to be 277 nM.
`O=C(O)c1cc(-c2ccc(N3CCOCC3)cc2)c2c(C3CCC3)nn(-c3cccc(F)c3)c2n1` [compound 349, 3-cyclobutyl-1-(3-fluorophenyl)-4-[4-(morpholin-4-yl)phenyl]-1H-pyrazolo[3,4-b]pyridine-6-carboxylic acid]: the “% Activation” value on ΔF508-CFTR [1] (setting [4]) worked out at 208.2%; on ΔF508-CFTR [2], 382.73%. Also, the figures for the EC50 at ΔF508-CFTR [1] (setting [5]) and at ΔF508-CFTR [2] were 460 nM and 236 nM, respectively.
The corresponding values for `Cc1nn(-c2ccccc2)c2nc(C(=O)O)cc(-c3ccc(N4CC5CCC(C4)O5)cc3)c12` [compound 134, 3-methyl-4-[4-(8-oxa-3-azabicyclo[3.2.1]octan-3-yl)phenyl]-1-phenyl-1H-pyrazolo[3,4-b]pyridine-6-carboxylic acid] are 153.25%, 362.2%, 982 nM and 556 nM.
In the case of `Cc1nn(-c2ccccc2)c2nc(C(=O)O)cc(N3CC4(CCOC4)C3)c12` [compound 306, 3-methyl-4-(6-oxa-2-azaspiro[3.4]octan-2-yl)-1-phenyl-1H-pyrazolo[3,4-b]pyridine-6-carboxylic acid], the “% Activation” value on ΔF508-CFTR [1] (setting [4]) is given as 22.69%; on ΔF508-CFTR [2], 147.8%. The EC50 on ΔF508-CFTR [1] (setting [5]) stood at 7500 nM; on ΔF508-CFTR [2], 2510 nM.
With `O=C(O)c1cc(N2CCC(CN3CCC4(COC4)C3)CC2)c2c(C3CCC3)nn(-c3ccccc3)c2n1` [compound 842, 3-cyclobutyl-4-{4-[(2-oxa-6-azaspiro[3.4]octan-6-yl)methyl]piperidin-1-yl}-1-phenyl-1H-pyrazolo[3,4-b]pyridine-6-carboxylic acid], the entries for the “% Activation” value on ΔF508-CFTR [1] (setting [3]) and at ΔF508-CFTR [2] were 162.5% and 370%, respectively. The concentration giving a half-maximal response (EC50) at ΔF508-CFTR [1] (setting [3]) is 628 nM; on ΔF508-CFTR [2], 582 nM.
In the same order, the values of `N#CC1CCN(C2CCN(c3cc(C(=O)O)nc4c3c(C3CCC3)nn4-c3ccc(F)cc3)CC2)C1` (stereo not shown) [compound 870, 4-[4-(3-cyanopyrrolidin-1-yl)piperidin-1-yl]-3-cyclobutyl-1-(4-fluorophenyl)-1H-pyrazolo[3,4-b]pyridine-6-carboxylic acid] are 304.4%, 611.45%, 1040 nM and 171 nM.
As to `Cc1nn(-c2ccccc2)c2nc(C(=O)O)cc(OC3CCN(C)CC3)c12` [compound 339, 3-methyl-4-[(1-methylpiperidin-4-yl)oxy]-1-phenyl-1H-pyrazolo[3,4-b]pyridine-6-carboxylic acid], the entries for the “% Activation” value at ΔF508-CFTR [1] (setting [4]) and at ΔF508-CFTR [2] were 15.162% and 126.85%, respectively. The concentration for a half-maximal effect (EC50) on ΔF508-CFTR [1] (setting [5]) and on ΔF508-CFTR [2] was 7500 nM throughout.
For `COCCN(CCOC)c1ccc(-c2cc(C(=O)O)nc3c2c(C(C)C)nn3C2CCCCC2)cn1` [compound 275, 4-{6-[bis(2-methoxyethyl)amino]pyridin-3-yl}-1-cyclohexyl-3-(propan-2-yl)-1H-pyrazolo[3,4-b]pyridine-6-carboxylic acid], the “% Activation” value at ΔF508-CFTR [1] (setting [4]) worked out at 173.8%; on ΔF508-CFTR [2] it was 371.35%. The values for the EC50 at ΔF508-CFTR [1] (setting [5]) and on ΔF508-CFTR [2] were 923 nM and 736 nM, respectively.
Take `CN(C)CC(CN(C)C)Oc1cc(C(=O)O)nc2c1c(C1CCC1)nn2-c1ccccc1` [compound 638, 4-{[1,3-bis(dimethylamino)propan-2-yl]oxy}-3-cyclobutyl-1-phenyl-1H-pyrazolo[3,4-b]pyridine-6-carboxylic acid]: at ΔF508-CFTR [1] (setting [3]), the “% Activation” value is on record as 24.93% and the concentration giving a half-maximal response (EC50) was above 10000 nM. In addition, on ΔF508-CFTR [2], the “% Activation” value was determined as 175.15% and the EC50 was 6660 nM.
In the same order, the values of `CN(C)CCCCOc1cc(C(=O)O)nc2c1c(C1CCC1)nn2-c1ccccc1` [compound 611, 3-cyclobutyl-4-[4-(dimethylamino)butoxy]-1-phenyl-1H-pyrazolo[3,4-b]pyridine-6-carboxylic acid] are 104.6%, 3330 nM, 278.1% and 2930 nM.
`CC(C)c1nn(C2CCCCC2)c2nc(C(=O)O)cc(-c3ccc(N4CCC(C#N)CC4)nc3)c12` [compound 180, 4-[6-(4-cyanopiperidin-1-yl)pyridin-3-yl]-1-cyclohexyl-3-(propan-2-yl)-1H-pyrazolo[3,4-b]pyridine-6-carboxylic acid]: the “% Activation” value is given as 249.55% at ΔF508-CFTR [1] (setting [4]) and 524.85% on ΔF508-CFTR [2]. The EC50 worked out at 972 nM on ΔF508-CFTR [1] (setting [5]) and 687 nM on ΔF508-CFTR [2].
In the same order, the values of `Cc1nn(-c2ccccc2)c2nc(C(=O)O)cc(N3CCN(S(C)(=O)=O)CC3)c12` [compound 146, 4-[4-(methanesulfonyl)piperazin-1-yl]-3-methyl-1-phenyl-1H-pyrazolo[3,4-b]pyridine-6-carboxylic acid] are 8.92%, 134.9%, above 10000 nM and above 10000 nM.
Consider `COC1CCN(c2cc(C(=O)O)nc3c2c(C(C)C)nn3-c2ccnc(N3CCCC3)c2)CC1` [compound 412, 4-(4-methoxypiperidin-1-yl)-3-(propan-2-yl)-1-[2-(pyrrolidin-1-yl)pyridin-4-yl]-1H-pyrazolo[3,4-b]pyridine-6-carboxylic acid], for which the “% Activation” value turned out to be 215.6% at ΔF508-CFTR [1] (setting [3]) and 387.2% on ΔF508-CFTR [2]. For the same molecule, the EC50 on ΔF508-CFTR [1] (setting [3]) amounted to 460 nM; at ΔF508-CFTR [2], 307 nM.
In the same order, the values of `O=C1CN(c2cc(C(=O)O)nc3c2c(C2CCC2)nn3-c2ccccc2)CCN1` [compound 504, 3-cyclobutyl-4-(3-oxopiperazin-1-yl)-1-phenyl-1H-pyrazolo[3,4-b]pyridine-6-carboxylic acid] are 19.62%, 138.9%, above 10000 nM and above 10000 nM.
Turning to `CC(C)c1nn(-c2cccc(N3CCCC3)c2)c2nc(C(=O)O)cc(-c3cnc(N4CCC(C#N)CC4)nc3)c12` [compound 259, 4-[2-(4-cyanopiperidin-1-yl)pyrimidin-5-yl]-3-(propan-2-yl)-1-[3-(pyrrolidin-1-yl)phenyl]-1H-pyrazolo[3,4-b]pyridine-6-carboxylic acid], the “% Activation” value on ΔF508-CFTR [1] (setting [4]) was determined as 438.95%; at ΔF508-CFTR [2] it was 673.9%. In addition, the concentration giving a half-maximal response (EC50) at ΔF508-CFTR [1] (setting [5]) was 1130 nM; on ΔF508-CFTR [2], 1010 nM.
Turning to `CN1[C@@H]2CC[C@H]1C[C@@H](Oc1cc(C(=O)O)nc3c1c(C1CCC1)nn3-c1ccccc1)C2` [compound 621, 3-cyclobutyl-4-{[(3-endo)-8-methyl-8-azabicyclo[3.2.1]octan-3-yl]oxy}-1-phenyl-1H-pyrazolo[3,4-b]pyridine-6-carboxylic acid], on ΔF508-CFTR [1] (setting [3]), the “% Activation” value is 89.46% and the EC50 stood at 3330 nM. On ΔF508-CFTR [2], the “% Activation” value is 294.75% and the EC50 worked out at 3140 nM.
